Data published in patent publication US6737383B1, “Herbicidal oxadiazolidines” (priority 1999, dated 2004).

How the values were obtained:
bedstraw = test: Test B pre/postemergence bedstraw; format: in vivo, Galium aparine
Procedure, shortened: (§1)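 Response is a visual 0-to-10 score relative to untreated plants, where 0 means no effect and 10 means complete control, taken twelve to sixteen days after application. Treatments went onto soil at planting and onto foliage of 1- to 4-leaf plants, using a surfactant-containing non-phytotoxic solvent.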

blackgrass = test: Test B pre/postemergence blackgrass; format: in vivo, Alopecurus myosuroides
Procedure, shortened: as §1

surinam grass = test: Test B pre/postemergence surinam grass; format: in vivo, Brachiaria decumbens
Procedure, shortened: as §1

cocklebur = test: Test B pre/postemergence cocklebur; format: in vivo, Xanthium strumarium
Procedure, shortened: as §1

corn = test: Test B pre/postemergence corn; format: in vivo, Zea mays
Procedure, shortened: as §1

giant foxtail = test: Test B pre/postemergence giant foxtail; format: in vivo, Setaria faberii
Procedure, shortened: as §1

morningglory = test: Test B pre/postemergence morningglory; format: in vivo, Ipomoea hederacea
Procedure, shortened: as §1

pigweed = test: Test B pre/postemergence pigweed; format: in vivo, Amaranthus retroflexus
Procedure, shortened: as §1

rape = test: Test B pre/postemergence rape; format: in vivo, Brassica napus
Procedure, shortened: as §1

soybean = test: Test B pre/postemergence soybean; format: in vivo, Glycine max
Procedure, shortened: as §1

sugar beet = test: Test B pre/postemergence sugar beet; format: in vivo, Beta vulgaris
Procedure, shortened: as §1

velvetleaf = test: Test B pre/postemergence velvetleaf; format: in vivo, Abutilon theophrasti
Procedure, shortened: as §1

purple nutsedge = test: Test B pre/postemergence purple nutsedge; format: in vivo, Cyperus rotundus
Procedure, shortened: as §1

smallflower flatsedge = test: Test B flood test smallflower flatsedge; format: in vivo, Cyperus difformis
Procedure, shortened: (§2)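 Plants were grown to the 2-leaf stage before treatment with test chemical, then held in a greenhouse for twelve to sixteen days. Injury was visually rated against untreated controls on a 0–10 scale, where 0 is no effect and 10 is complete control.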

duck salad = test: Test B flood test duck salad; format: in vivo, Heteranthera limosa
Procedure, shortened: as §2

bamyardgrass = test: Test B flood test barnyardgrass; format: in vivo, Echinochloa crus-galli
Procedure, shortened: as §2

[1] = Postemergence, Rate 31 g/ha, visual rating, scale 0 to 10 (0 no effect, 10 complete control)
[2] = Preemergence, Rate 31 g/ha, visual rating, scale 0 to 10 (0 no effect, 10 complete control)
[3] = Preemergence, Rate 62 g/ha, scale of 0 to 10 where 0 is no effect and 10 is complete control
[4] = Preemergence, Rate 250 g/ha, scale of 0 to 10 where 0 is no effect and 10 is complete control
[5] = Rate 62 g/ha, Postemergence, scale 0 to 10 (0 no effect, 10 complete control)
[6] = Rate 125 g/ha, Postemergence, scale of 0 to 10 where 0 is no effect and 10 is complete control
[7] = Rate 125 g/ha, Preemergence, scale of 0 to 10 where 0 is no effect and 10 is complete control
[8] = Rate 250 g/ha, Postemergence, scale of 0 to 10 where 0 is no effect and 10 is complete control
[9] = Rate 31 g/ha, Pre-emergence section (flood test species), scale 0 to 10
[10] = Rate 62 g/ha, headed Pre-emergence (flood test species), scale 0 to 10 (0 no effect, 10 complete control)
[11] = Rate 125 g/ha, Pre-emergence, flood test species, scale 0 to 10 where 0 is no effect and 10 is complete control
[12] = Rate 250 g/ha, Pre-emergence, flood-test species, scale 0 to 10, 0 is no effect, 10 is complete control

Compound: CC(C)N(C(=O)n1oc(=O)n(C(C)C)c1=O)c1cnccn1 [Compound 296]
- Bedstraw plant response rating (bedstraw; [1]): 0
- Bedstraw plant response rating (bedstraw; [2]): 0
- Bedstraw plant response rating (bedstraw; [3]): 0
- Bedstraw plant response rating (bedstraw; [4]): 0
- Bedstraw plant response rating (bedstraw; [5]): 0
- Bedstraw plant response rating (bedstraw; [6]): 0
- Bedstraw plant response rating (bedstraw; [7]): 0
- Plant response rating, Bedstraw (bedstraw; [8]): 0
- Blackgrass plant response rating (blackgrass; [1]): 0
- Blackgrass plant response rating (blackgrass; [2]): 0
- Blackgrass plant response rating (blackgrass; [3]): 0
- Blackgrass plant response rating (blackgrass; [4]): 0
- Blackgrass plant response rating (blackgrass; [5]): 0
- Blackgrass plant response rating (blackgrass; [6]): 0
- Blackgrass plant response rating (blackgrass; [7]): 0
- Plant response rating, Blackgrass (blackgrass; [8]): 0
- B. signalgrass plant response rating (surinam grass; [1]): 0
- B. signalgrass plant response rating (surinam grass; [2]): 0
- B. signalgrass plant response rating (surinam grass; [3]): 0
- B. signalgrass plant response rating (surinam grass; [4]): 0
- B. signalgrass plant response rating (surinam grass; [5]): 0
- B. signalgrass plant response rating (surinam grass; [6]): 0
- B. signalgrass plant response rating (surinam grass; [7]): 0
- Plant response rating, B. signalgrass (surinam grass; [8]): 0
- Cocklebur plant response rating (cocklebur; [1]): 0
- Cocklebur plant response rating (cocklebur; [2]): 0
- Cocklebur plant response rating (cocklebur; [3]): 0
- Cocklebur plant response rating (cocklebur; [4]): 0
- Cocklebur plant response rating (cocklebur; [5]): 0
- Cocklebur plant response rating (cocklebur; [6]): 0
- Cocklebur plant response rating (cocklebur; [7]): 0
- Plant response rating, Cocklebur (cocklebur; [8]): 0
- Corn plant response rating (corn; [1]): 0
- Corn plant response rating (corn; [2]): 0
- Corn plant response rating (corn; [3]): 0
- Corn plant response rating (corn; [4]): 0
- Corn plant response rating (corn; [5]): 0
- Corn plant response rating (corn; [6]): 0
- Corn plant response rating (corn; [7]): 0
- Plant response rating, Corn (corn; [8]): 0
- Giant foxtail plant response rating (giant foxtail; [1]): 0
- Giant foxtail plant response rating (giant foxtail; [2]): 0
- Giant foxtail plant response rating (giant foxtail; [3]): 0
- Giant foxtail plant response rating (giant foxtail; [4]): 0
- Giant foxtail plant response rating (giant foxtail; [5]): 0
- Giant foxtail plant response rating (giant foxtail; [6]): 0
- Giant foxtail plant response rating (giant foxtail; [7]): 0
- Plant response rating, Giant foxtail (giant foxtail; [8]): 0
- Morningglory plant response rating (morningglory; [1]): 0
- Morningglory plant response rating (morningglory; [3]): 0
- Morningglory plant response rating (morningglory; [4]): 0
- Morningglory plant response rating (morningglory; [5]): 0
- Morningglory plant response rating (morningglory; [6]): 0
- Morningglory plant response rating (morningglory; [7]): 0
- Plant response rating, Morningglory (morningglory; [8]): 1
- Redroot pigweed plant response rating (pigweed; [1]): 0
- Redroot pigweed plant response rating (pigweed; [3]): 0
- Redroot pigweed plant response rating (pigweed; [4]): 0
- Redroot pigweed plant response rating (pigweed; [5]): 0
- Redroot pigweed plant response rating (pigweed; [6]): 0
- Redroot pigweed plant response rating (pigweed; [7]): 0
- Plant response rating, Redroot pigweed (pigweed; [8]): 0
- Rape plant response rating (rape; [1]): 0
- Rape plant response rating (rape; [3]): 0
- Rape plant response rating (rape; [4]): 0
- Rape plant response rating (rape; [5]): 0
- Rape plant response rating (rape; [6]): 0
- Rape plant response rating (rape; [7]): 0
- Plant response rating, Rape (rape; [8]): 0
- Soybean plant response rating (soybean; [1]): 0
- Soybean plant response rating (soybean; [3]): 0
- Soybean plant response rating (soybean; [4]): 0
- Soybean plant response rating (soybean; [5]): 0
- Soybean plant response rating (soybean; [6]): 0
- Soybean plant response rating (soybean; [7]): 0
- Plant response rating, Soybean (soybean; [8]): 1
- Sugarbeets plant response rating (sugar beet; [1]): 0
- Sugarbeets plant response rating (sugar beet; [3]): 0
- Sugarbeets plant response rating (sugar beet; [4]): 0
- Sugarbeets plant response rating (sugar beet; [5]): 0
- Sugarbeets plant response rating (sugar beet; [6]): 0
- Sugarbeets plant response rating (sugar beet; [7]): 0
- Plant response rating, Sugarbeets (sugar beet; [8]): 0
- Velvetleaf plant response rating (velvetleaf; [1]): 0
- Velvetleaf plant response rating (velvetleaf; [3]): 0
- Velvetleaf plant response rating (velvetleaf; [4]): 0
- Velvetleaf plant response rating (velvetleaf; [5]): 0
- Velvetleaf plant response rating (velvetleaf; [6]): 0
- Velvetleaf plant response rating (velvetleaf; [7]): 0
- Plant response rating, Velvetleaf (velvetleaf; [8]): 0
- Nutsedge plant response rating (purple nutsedge; [1]): 0
- Nutsedge plant response rating (purple nutsedge; [3]): 0
- Nutsedge plant response rating (purple nutsedge; [5]): 0
- Nutsedge plant response rating (purple nutsedge; [6]): 0
- Nutsedge plant response rating (purple nutsedge; [7]): 0
- Plant response rating, Nutsedge (purple nutsedge; [8]): 0
- S. Flatsedge plant response rating (smallflower flatsedge; [9]): 0
- S. Flatsedge plant response rating (smallflower flatsedge; [10]): 0
- S. Flatsedge plant response rating (smallflower flatsedge; [11]): 0
- S. Flatsedge plant response rating (smallflower flatsedge; [12]): 0
- Ducksalad plant response rating (duck salad; [9]): 0
- Ducksalad plant response rating (duck salad; [10]): 0
- Ducksalad plant response rating (duck salad; [11]): 0
- Ducksalad plant response rating (duck salad; [12]): 0
- Barnyardgrass plant response rating (bamyardgrass; [9]): 0
- Barnyardgrass plant response rating (bamyardgrass; [10]): 0
- Barnyardgrass plant response rating (bamyardgrass; [11]): 0
- Barnyardgrass plant response rating (bamyardgrass; [12]): 0
